Laboratory results published in patent publication US20240100045A1, “EMULSION COMPOSITION AND USES THEREOF IN THE PREVENTION AND/OR TREATMENT OF SKIN DAMAGE CAUSED BY RADIATION” (TARIAN PHARMA, priority 2021, published 2024).
Like-named read-outs stand apart in the source and are kept apart here. Marks after values point to notes of the source that are not given here.

How the values were obtained:
[1] = system: alpha2-adrenergic receptors; conditions: alpha2 vs alpha1; cited from earlier work
[2] = for saturation in the aqueous solvent phase of the primary formulation: prior to application
Description: (§1) […] were prepared by adding an excess of drug substance to various solvents and storing the samples in sealed containers for 24 hours at room temperature with continuous stirring.
(§2) The majority of samples were stirred by a magnetic stirrer; however, in the case of viscous samples (e.g for pure glycerine), samples were stirred using a rotary mixer. The speed of the rotary mixer was adjusted to ensure proper mixing of the sample and this generally involved slower rotation speeds.
(§3) The chromatographic conditions are described below:• Column: Sunfire C18 150 mm×4.6 mm, 3.5 μm • Column temperature: 40° C. • Injection volume: […] • Flow rate: 0.8m1/minute • UV Detection: 246 nm
Saturated solutions were prepared, incubated and measured as described in Example 1.

[3] = Description: as §1, §2, §3
[4] = conditions not specified, cited from earlier work

Brc1c(NC2=NCCN2)ccc2nccnc12 [Brimonidine]
selectivity for alpha2-adrenergic receptors over alpha1-adrenergic receptors [1]: 1,000 times

brimonidine tartrate
active agent solubilised by the non-volatile mixture compared to the aqueous mixture ([2]; PG/PEG-400/GLY/PVP (20:10:5:1) vs PG/PEG400/GLY/PVP/water (20:10:5:1:40)): approximately 22%
saturation in the aqueous solvent phase of the primary formulation ([2]; concentration of 1% brimonidine tartrate): around 30%
saturation in the aqueous solvent phase of the primary formulation ([2]; concentration of 1.5% brimonidine tartrate): ~50%
Max Solubility % (w/w) ([2]; in PG/PEG-400 (20:10)): 0.45 % (w/w)
Max Solubility % (w/w) ([2]; in PG/PEG-400/GLY (20:10:5)): 0.66 % (w/w)
Max Solubility % (w/w) ([2]; in PG/PEG-400/GLY/(20:10:5:1)): 0.72 % (w/w)
Max Solubility % (w/w) ([2]; in PG/PEG-400/GLY/PVP/Water (20:10:5:1:40)): 3.3 % (w/w)
Max Solubility % (w/w) ([2]; in PG/PEG-400/PVP (20:10:1)): 0.45 % (w/w)
solubility in glycerine relative to propylene glycol ([3]; glycerine vs propylene glycol): twice
Max Solubility % (w/w) ([3]; in ARLASOLVE DMI, 24 hours at room temperature): 0.01 % (w/w)
Max Solubility % (w/w) ([3]; in GLUCAM E10, peak degradation observed after reinjection T + 72 hours): 0.72* % (w/w)
Max Solubility % (w/w) ([3]; in GLUCAM E20, peak degradation observed after reinjection T + 72 hours): 0.88* % (w/w)
Max Solubility % (w/w) ([3]; in Glycerine (GLY, 20 ml scintillation bottle)): 1.61 % (w/w)
Max Solubility % (w/w) ([3]; in Hexylene Glycol): 0.01 % (w/w)
Max Solubility % (w/w) ([3]; in Na Pyrrolidone Carboxylate (Ajidew L50)): 0.06 % (w/w)
Max Solubility % (w/w) ([3]; in PEG-400): 0.10 % (w/w)
Max Solubility % (w/w) ([3]; in Propylene Carbonate, peak degradation observed after reinjection T + 24 hours): 0.01** % (w/w)
Max Solubility % (w/w) ([3]; in Propylene glycol, measured value): 0.56 % (w/w)
Max Solubility % (w/w) ([3]; in TRANSCUTOL, 24 hours at room temperature): 0.05 % (w/w)
Max Solubility % (w/w) ([3]; in WATER, measured value): 6.40 % (w/w)
solubility capacity of PG relative to glycerine ([3]; propylene glycol vs glycerine): 50%
Max Solubility % (w/w) ([4]; in Propylene glycol, literature value (Product Monograph ALPHAGAN)): ~0.1**** % (w/w)
Max Solubility % (w/w) ([4]; in WATER, literature value): 3.4*** % (w/w)
